Test results published in ChEMBL document CHEMBL1208741, “Docking and SAR studies of salacinol derivatives as alpha-glucosidase inhibitors” (Bioorg Med Chem Lett, 2010).

Experiment: Inhibition of alpha glucosidase

Compound	pIC50
[O-]C[C@@H](O)[C@@H](O)C[S@+]1C[C@@H](O)[C@H](O)[C@H]1CO	< 3
[O-]CC[C@H](O)C[S@+]1C[C@@H](O)[C@H](O)[C@H]1CO	3.94
[O-][C@@H](CO)[C@H](O)C[S@+]1C[C@@H](O)[C@H](O)[C@H]1CO [NEOSALACINOL]	5.1
O=S(=O)([O-])OC[C@H](O)C[S@+]1C[C@@H](O)[C@H](O)[C@H]1CO [SALAPRINOL]	3

Next, values leading:

pIC50	Compound
< 3	O=S(=O)([O-])O[C@@H](CO)CC[S@+]1C[C@@H](O)[C@H](O)[C@H]1CO
< 3	O=S(=O)([O-])OCCC[S@+]1C[C@@H](O)[C@H](O)[C@H]1CO
< 3	O=S(=O)([O-])O[C@H](CO)[C@@H](O)C[S@+]1C[C@@H](O)[C@H](O)[C@H]1CO
5.28	O=S(=O)([O-])O[C@@H](CO)[C@H](O)C[S@+]1C[C@@H](O)[C@H](O)[C@H]1CO [SALACINOL]
